# From US7468391B2, “Methods for treating retinoid responsive disorders using selective inhibitors of CYP26A and CYP26B” (Allergan, Inc., priority 2003, dated 2008)
# How the values were obtained:
# CYP26A (P450RAI-1) = target: T1, CYP26A (P450RAI-1) (Homo sapiens, UniProt O43174); experiment: Cell-based inhibition of RA metabolism in CYP26A stably transfected HeLa cells; settings: stably transfected HeLa cells, [3H]-RA, 3 hours at 37° C.; read-out: P450RAI-1 Whole cell IC50
# T1 construct: expressed in transfected cells; host or cells: HeLa
# T1 sequence (O43174 1-497): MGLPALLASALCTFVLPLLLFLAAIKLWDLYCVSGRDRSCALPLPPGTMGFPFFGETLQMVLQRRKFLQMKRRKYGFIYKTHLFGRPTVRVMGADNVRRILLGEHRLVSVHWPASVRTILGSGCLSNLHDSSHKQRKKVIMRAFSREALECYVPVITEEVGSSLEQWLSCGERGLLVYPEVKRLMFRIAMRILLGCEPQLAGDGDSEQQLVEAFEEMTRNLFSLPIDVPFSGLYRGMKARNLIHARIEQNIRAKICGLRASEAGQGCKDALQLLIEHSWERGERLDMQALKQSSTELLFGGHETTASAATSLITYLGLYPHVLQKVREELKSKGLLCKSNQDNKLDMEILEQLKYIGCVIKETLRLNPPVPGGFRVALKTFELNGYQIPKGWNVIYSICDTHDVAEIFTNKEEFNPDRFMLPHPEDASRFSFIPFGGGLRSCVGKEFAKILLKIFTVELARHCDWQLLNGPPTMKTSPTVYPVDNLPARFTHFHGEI
# In short: (§1)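 Stably transfected HeLa cells (5×10^5/well) in MEM with 10% FBS and 0.05 μCi [3H]-RA, compounds at 10, 1 or 0.1 μM final, 3 h at 37° C. Retinoids extracted by modified Bligh-Dyer (methylene chloride); aqueous radioactivity counted; ID50 for 50% inhibition of RA metabolism derived from log-transformed data.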
# CYP26B (P450RAI-2) = target: T2, CYP26B (P450RAI-2) (Homo sapiens, UniProt Q9NR63); experiment: Cell-based inhibition of RA metabolism in CYP26B stably transfected HeLa cells; settings: stably transfected HeLa cells, [3H]-RA, 3 hours at 37° C.; read-out: P450RAI-2 Whole cell IC50
# T2 construct: expressed in transfected cells; host or cells: HeLa
# T2 sequence (Q9NR63 1-512): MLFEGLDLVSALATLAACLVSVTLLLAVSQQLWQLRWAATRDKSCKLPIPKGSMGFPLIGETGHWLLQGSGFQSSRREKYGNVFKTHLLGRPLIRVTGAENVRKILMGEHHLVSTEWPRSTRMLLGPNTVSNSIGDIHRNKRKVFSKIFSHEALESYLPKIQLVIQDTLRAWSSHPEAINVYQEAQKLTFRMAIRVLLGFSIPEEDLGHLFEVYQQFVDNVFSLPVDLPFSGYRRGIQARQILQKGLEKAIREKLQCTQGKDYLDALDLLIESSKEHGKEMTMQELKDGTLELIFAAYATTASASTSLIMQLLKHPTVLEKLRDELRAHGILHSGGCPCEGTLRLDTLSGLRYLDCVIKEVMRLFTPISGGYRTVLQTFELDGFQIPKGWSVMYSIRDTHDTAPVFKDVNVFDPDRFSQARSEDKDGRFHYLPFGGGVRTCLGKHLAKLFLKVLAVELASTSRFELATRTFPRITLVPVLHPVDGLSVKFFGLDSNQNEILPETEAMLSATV
# In short: as §1
# RAR β [1] = target: T3, RAR β (Homo sapiens, UniProt P10826); experiment: RAR β EC50/(efficacy); format: cell-based; settings: for RAR β (EFFICACY): value in brackets of cell EC50/(EFFICACY)/Kd; for EC50: first item of cell EC50/(EFFICACY)/Kd
# T3 sequence (P10826 1-455): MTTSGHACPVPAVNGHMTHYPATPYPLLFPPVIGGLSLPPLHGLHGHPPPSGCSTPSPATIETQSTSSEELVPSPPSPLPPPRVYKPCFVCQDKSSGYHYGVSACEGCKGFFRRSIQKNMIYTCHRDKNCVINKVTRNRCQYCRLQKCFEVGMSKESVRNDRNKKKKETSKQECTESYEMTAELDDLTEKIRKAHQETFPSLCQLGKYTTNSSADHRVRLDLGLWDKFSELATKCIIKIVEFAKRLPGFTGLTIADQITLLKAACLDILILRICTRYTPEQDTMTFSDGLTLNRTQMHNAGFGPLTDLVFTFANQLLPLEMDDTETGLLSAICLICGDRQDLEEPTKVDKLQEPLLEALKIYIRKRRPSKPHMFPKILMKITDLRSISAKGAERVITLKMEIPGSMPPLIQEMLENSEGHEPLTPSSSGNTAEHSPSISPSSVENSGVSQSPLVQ
# RAR γ [2] = target: T4, RAR γ (Homo sapiens, UniProt P13631); experiment: RAR γ EC50/(efficacy); format: cell-based; settings: for RAR γ (EFFICACY): value in brackets of cell EC50/(EFFICACY)/Kd
# T4 sequence (P13631 1-454): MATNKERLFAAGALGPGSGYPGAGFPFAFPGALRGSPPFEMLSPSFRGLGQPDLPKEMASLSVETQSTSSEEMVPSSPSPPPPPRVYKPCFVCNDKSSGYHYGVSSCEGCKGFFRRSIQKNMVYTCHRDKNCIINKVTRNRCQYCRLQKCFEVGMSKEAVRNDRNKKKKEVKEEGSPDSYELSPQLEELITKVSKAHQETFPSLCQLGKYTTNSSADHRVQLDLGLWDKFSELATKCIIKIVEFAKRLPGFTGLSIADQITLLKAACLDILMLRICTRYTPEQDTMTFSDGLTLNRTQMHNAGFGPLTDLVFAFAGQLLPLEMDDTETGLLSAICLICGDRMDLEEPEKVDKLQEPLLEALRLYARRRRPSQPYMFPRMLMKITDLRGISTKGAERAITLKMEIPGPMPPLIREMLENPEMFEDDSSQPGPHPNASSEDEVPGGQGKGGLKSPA
# RAR α = target: T5, RAR α (Homo sapiens, UniProt P10276); experiment: RAR α Kd; format: binding; settings: last item of cell EC50/(EFFICACY)/Kd
# T5 sequence (P10276 1-462): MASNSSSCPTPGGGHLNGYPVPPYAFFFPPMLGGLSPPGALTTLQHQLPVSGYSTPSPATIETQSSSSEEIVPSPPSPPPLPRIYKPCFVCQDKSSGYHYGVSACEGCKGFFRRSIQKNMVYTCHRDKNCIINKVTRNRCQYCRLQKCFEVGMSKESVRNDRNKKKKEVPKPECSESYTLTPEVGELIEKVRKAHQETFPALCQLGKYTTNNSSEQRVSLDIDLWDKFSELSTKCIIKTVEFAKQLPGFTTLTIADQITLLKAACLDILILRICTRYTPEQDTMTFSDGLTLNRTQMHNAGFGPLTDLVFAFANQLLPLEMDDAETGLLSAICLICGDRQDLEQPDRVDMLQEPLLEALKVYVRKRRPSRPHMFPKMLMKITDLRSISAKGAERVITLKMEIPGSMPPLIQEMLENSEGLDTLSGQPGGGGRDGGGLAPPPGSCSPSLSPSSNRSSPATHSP
# RAR β [3] = target: T3, RAR β; experiment: RAR β Kd; format: binding; settings: last item of cell EC50/(EFFICACY)/Kd
# RAR γ [4] = target: T4, RAR γ; experiment: RAR γ Kd; format: binding; settings: last item of cell EC50/(EFFICACY)/Kd
SMILES,IC50 (CYP26A (P450RAI-1)) [µM],IC50 (CYP26B (P450RAI-2)) [µM],RAR β (EFFICACY) (RAR β [1]),RAR γ (EFFICACY) (RAR γ [2]),Kd (RAR α) [µM],Kd (RAR β [3]) [µM],Kd (RAR γ [4]) [µM],EC50 (RAR β [1]) [µM],EC50 (RAR γ [2]; first item of cell EC50/(EFFICACY)/Kd) [µM]
C/C(=C\c1ccc(C#Cc2cc(C3CC3)c3c(c2)C(C)(C)CC2(CC2)O3)cc1)C(=O)O [Compound 3],0.25,> 10,15,10,> 10,0.52,6.04,–,–
CC1(C)CC2(CC2)Oc2c(C3CC3)cc(C#Cc3ccc(/C=C(\Cl)C(=O)O)cc3)cc21 [Compound 4],0.12,> 10,20,15,> 10,> 10,> 10,–,–
"CC1(C)CC2(CC2)Oc2c(C3CC3)cc(NC(=O)Nc3ccc(C(=O)O)cc3)cc21 [Compound 5, 4-{3-[8-Cyclopropyl-3,3-dihydro-4,4-dimethylspiro(2H-1-benzopyran-2,2′-cyclopropane)-6-yl]-ureido}-benzoic acid]",> 10,0.45,55,15,> 10,4.54,> 10,0.32,–
"CCC1(CC)CC(C)(C)c2cc(C#Cc3ccc(C(C)(C)C(=O)O)cc3)cc(C(C)C)c2O1 [Compound 14, 2-[4-(2,2-Diethyl-8-isopropyl-4,4-dimethyl-chroman-6-ylethynyl)-phenyl]-2-methyl-propionic acid]",0.7,> 10,10,25,5.17,7.4,> 10,–,–
"C=Cc1cc(C#Cc2ccc(CC(=O)O)cc2)cc2c1C(N(C)C1CC1)CCC2(C)C (stereo not shown) [Compound 23, {4-[5-(Cyclopropyl-methyl-amino)-8,8-dimethyl-4-vinyl-5,6,7,8-tetrahydro-naphthalen-2-ylethynyl]-phenyl}-acetic acid]",0.008,0.5,40,35,> 10,> 10,> 10,–,–
"C/C(=C\c1ccc(C#Cc2cccc(CN(C)C3CC3)c2)cc1)C(=O)O [Compound 33, 3-(4-{3-[(Cyclopropyl-methyl-amino)-methyl]-phenylethynyl}-phenyl)-2-methyl-acrylic acid]",> 10,1,30,10,3.25,–,> 10,–,–
"CC(C)(C)c1cccc(C#Cc2ccc(/C=C/C(=O)O)cc2)c1 [Compound 35, (E)-3-[4-(3-tert-Butyl-phenylethynyl)-phenyl]-acrylic acid]",> 10,0.5,80,48,1.93,2.09,2.89,0.016,0.126
"CC(C)Oc1cc(C#Cc2ccc(CC(=O)O)cc2)cc2c1C(N(C)C1CC1)CCC2(C)C (stereo not shown) [Compound 41, {4-[5-(Cyclopropyl-methyl-amino)-4-isopropoxy-8,8-dimethyl-5,6,7,8-tetrahydro-naphthalen-2-ylethynyl]-phenyl}-acetic acid]",0.016,> 10,–,30,> 10,> 10,> 10,–,–
"CN(C1CC1)C1CCC(C)(C)c2cc(C#Cc3ccc(/C=C/C(=O)O)cc3)cc(C3CC3)c21 (stereo not shown) [Compound 48, 3-{4-[4-Cyclopropyl-5-(cyclopropyl-methyl-amino)-8,8-dimethyl-5,6,7,8-tetrahydro-naphthalen-2-ylethynyl]-phenyl}-acrylic acid]",0.7,–,40,25,–,–,–,–,–
"CCOC(=O)C1CCC(C)(C)c2cc(C#Cc3ccc(CC(=O)O)cc3)c(C)cc21 (stereo not shown) [Compound 57, 6-(4-Carboxymethyl-phenylethynyl)-4,4,7-trimethyl-1,2,3,4-tetrahydro-naphthalene-1-carboxylic acid ethyl ester]",0.4,–,50,35,6.03,4.98,7.74,–,–
"C#Cc1cc(NC(=O)Nc2ccc(C(=O)O)c(F)c2)cc2c1OC(C)(C)CC2(C)C [Compound 63, 4-[3-(8-Ethynyl-2,2,4,4-tetramethyl-chroman-6-yl)-ureido]-2-fluoro-benzoic acid]",> 10,0.68,37,–,> 100,11,> 100,0.853,–
